The IC50 is the midpoint of a concentration-inhibition curve. A lower IC50 goes with greater potency.

The test can be described thus: Antagonist activity at rabbit CXCR2 by neutrophil chemotaxis assay.
Compound `CS(=O)(=O)NC(=O)CCCc1c(-c2ccc(F)cc2)[nH]c2ccc(C#N)cc12` [4-(5-cyano-2-(4-fluorophenyl)-1H-indol-3-yl)-N-(methylsulfonyl)butanamide] displayed an IC50 of 2.1 µM.

`CNS(=O)(=O)NC(=O)CCCc1c(-c2ccc(F)cc2)[nH]c2ccc(C#N)cc12` [4-[5-cyano-2-(4-fluorophenyl)-1H-indol-3-yl]-N-[(methylamino)sulfonyl]butanamide] returned a concentration for half-maximal inhibition (IC50) of 1.3 µM.

`CS(=O)(=O)NC(=O)NCCc1c(-c2ccc(F)cc2)[nH]c2ccc(Br)cc12` [1-(2-(5-bromo-2-(4-fluorophenyl)-1H-indol-3-yl)ethyl)-3-(methylsulfonyl)urea] gave a half-maximal inhibitory concentration (IC50) of 5.8 µM.

Regarding `N#Cc1ccc2[nH]c(-c3ccc(F)cc3)c(CCCC(=O)NS(=O)(=O)C(F)(F)F)c2c1` [4-(5-cyano-2-(4-fluorophenyl)-1H-indol-3-yl)-N-(trifluoromethylsulfonyl)butanamide], half-maximal inhibition (IC50) required 3 µM.

Regarding `O=C(NCCc1c(-c2ccc(F)cc2)[nH]c2ccc(Br)cc12)NS(=O)(=O)c1ccccc1` [1-(2-(5-bromo-2-(4-fluorophenyl)-1H-indol-3-yl)ethyl)-3-(phenylsulfonyl)urea], the half-maximal inhibitory concentration (IC50) came out at 1.7 µM.

Regarding `CN(C)S(=O)(=O)NC(=O)CCCc1c(-c2ccc(F)cc2)[nH]c2ccc(C#N)cc12` [4-[5-cyano-2-(4-fluorophenyl)-1H-indol-3-yl]-N-(dimethylsulfamoyl)butanamide], the midpoint of inhibition, the IC50, lay at 0.7 µM. This IC50 is about 2.4-fold lower than that of the compound before.

For the origin of these results see BindingDB's records for doi:10.1016/j.bmcl.2008.01.127 (Johnson & Johnson Pharmaceutical Research and Development, 2008).
